Where “and” joins values, the source holds several entries; their conditions need not be identical. Equal entries are not always repeated. Toxic doses and inconclusive results are not listed.
Tested on: P388 leukemia ip, CD2F1 mice, survival T/C
Experiment: NCI In Vivo Anticancer Drug Screen. Data for tumor model P388 Leukemia (intraperitoneal) in CD2F1 (CDF1) mice
Details: endpoint: median survival time, higher = longer survival
How it was run: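 Mice carrying the transplanted tumor received test compound or vehicle. Survival was recorded in each group, and the value is the treated-group measurement divided by that of the vehicle-treated control group.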

[1] = dose: 200.0 mg/kg/injection, schedule: Q04DX002 (ip), vehicle: saline with Tween-80
[2] = dose: 15.0 mg/kg/injection, schedule: Q01DX005 (ip), vehicle: saline
[3] = dose: 30.0 mg/kg/injection, schedule: Q01DX005 (ip), vehicle: saline
[4] = dose: 60.0 mg/kg/injection, schedule: Q01DX005 (ip), vehicle: saline
[5] = dose: 5.0 mg/kg/injection, schedule: Q01DX009 (ip), vehicle: other
[6] = dose: 10.0 mg/kg/injection, schedule: Q01DX009 (ip), vehicle: other
[7] = dose: 50.0 mg/kg/injection, schedule: Q01DX009 (ip), vehicle: Klucel (hydroxypropylcellulose) (HPC)
[8] = dose: 100.0 mg/kg/injection, schedule: Q01DX009 (ip), vehicle: Klucel (hydroxypropylcellulose) (HPC)
[9] = dose: 200.0 mg/kg/injection, schedule: Q01DX009 (ip), vehicle: Klucel (hydroxypropylcellulose) (HPC)
[10] = dose: 50.0 mg/kg/injection, schedule: Q01DX009 (ip), vehicle: saline
[11] = dose: 100.0 mg/kg/injection, schedule: Q01DX009 (ip), vehicle: saline
[12] = dose: 50.0 mg/kg/injection, schedule: Q04DX003 (ip), vehicle: Klucel (hydroxypropylcellulose) (HPC)
[13] = dose: 100.0 mg/kg/injection, schedule: Q04DX003 (ip), vehicle: Klucel (hydroxypropylcellulose) (HPC)
[14] = dose: 50.0 mg/kg/injection, schedule: Q04DX003 (ip), vehicle: saline with Tween-80
[15] = dose: 100.0 mg/kg/injection, schedule: Q04DX003 (ip), vehicle: saline with Tween-80
[16] = dose: 200.0 mg/kg/injection, schedule: Q04DX003 (ip), vehicle: saline with Tween-80

For CCC(=O)OCC(=O)[C@]1(O)Cc2c(O)c3c(c(O)c2[C@@H](OC2CC(N)C(O)C(C)O2)C1)C(=O)c1c(OC)cccc1C3=O (stereo not given in full), the T/C (dose: 0.25 mg/kg/injection, schedule: Q01DX009 (ip), vehicle: saline) was 163 % of control, the T/C (dose: 0.5 mg/kg/injection, schedule: Q01DX009 (ip), vehicle: saline sonified) was 172 % of control and the T/C (dose: 0.5 mg/kg/injection, schedule: Q01DX009 (ip), vehicle: saline) was 174 % of control. For the same compound, the T/C (dose: 1.0 mg/kg/injection, schedule: Q01DX009 (ip), vehicle: saline sonified) was 168 % of control, the T/C (dose: 1.0 mg/kg/injection, schedule: Q01DX009 (ip), vehicle: saline) was 225 % of control and the T/C (dose: 2.0 mg/kg/injection, schedule: Q01DX009 (ip), vehicle: saline sonified) was 172 % of control. The T/C (dose: 2.0 mg/kg/injection, schedule: Q01DX009 (ip), vehicle: saline) was 252 % of control and the T/C (dose: 8.0 mg/kg/injection, schedule: Q01DX009 (ip), vehicle: saline) was 114 % of control.
C/C=C(\NN=NC)c1ccccc1 was tested, and the T/C [1] was 166 % of control.
With CC(N)=S=O the T/C [2] was 112 % of control, the T/C [3] was 103 % of control and the T/C [4] was 106 % of control and 94 % of control.
COc1cc2c(c3c1C(=O)c1c(cc4c(c1O)C(OC1OC(C)C(OC)C(C)(OC)C1OC)CC(C)(O)C4)C3=O)OC1OC2(C)C(O)C(N(C)C)C1O (stereo not given) was tested, and the T/C [5] was 153 % of control, the T/C [6] was 159 % of control and the T/C (dose: 20.0 mg/kg/injection, schedule: Q01DX009 (ip), vehicle: other) was 168 % of control.
In the case of COc1cc(/C=C/C(=O)c2c(N)n(C)c(=O)n(C)c2=O)cc(OC)c1OC, the T/C [7] was 113 % of control, the T/C [8] was 115 % of control and the T/C [9] was 113 % of control.
For CCCCOc1ccc(C(=O)SCCCN=C(N)N)cc1, the T/C (dose: 12.5 mg/kg/injection, schedule: Q01DX005 (ip), vehicle: saline) was 98 % of control, the T/C (dose: 25.0 mg/kg/injection, schedule: Q01DX005 (ip), vehicle: saline) was 100 % of control and the T/C (dose: 50.0 mg/kg/injection, schedule: Q01DX005 (ip), vehicle: saline) was 96 % of control and 98 % of control and 105 % of control. For the same compound, the T/C (dose: 100.0 mg/kg/injection, schedule: Q01DX005 (ip), vehicle: saline) was 97 % of control.
OCC1OC(Oc2ccc(O)cc2)C(O)C(O)C1O (stereo not given) was tested, and the T/C (dose: 4.5 mg/kg/injection, schedule: Q01DX009 (ip), vehicle: Klucel (hydroxypropylcellulose) (HPC)) was 97 % of control, the T/C (dose: 9.0 mg/kg/injection, schedule: Q01DX009 (ip), vehicle: Klucel (hydroxypropylcellulose) (HPC)) was 90 % of control and the T/C (dose: 18.0 mg/kg/injection, schedule: Q01DX009 (ip), vehicle: Klucel (hydroxypropylcellulose) (HPC)) was 90 % of control. For the same compound, the T/C (dose: 36.0 mg/kg/injection, schedule: Q01DX009 (ip), vehicle: Klucel (hydroxypropylcellulose) (HPC)) was 98 % of control, the T/C [10] was 102 % of control and the T/C [11] was 102 % of control. The T/C (dose: 200.0 mg/kg/injection, schedule: Q01DX009 (ip), vehicle: saline) was 102 % of control and the T/C (dose: 400.0 mg/kg/injection, schedule: Q01DX009 (ip), vehicle: saline) was 106 % of control.
For COc1ccc(/C=N\N=C(/[O-])c2ccccc2O)cc1.COc1ccc(/C=N\N=C(/[O-])c2ccccc2O)cc1.[Mn+2].[OH3+].[OH3+], the T/C (dose: 50.0 mg/kg/injection, schedule: Q04DX002 (ip), vehicle: saline with Tween-80) was 107 % of control, the T/C (dose: 100.0 mg/kg/injection, schedule: Q04DX002 (ip), vehicle: saline with Tween-80) was 108 % of control and the T/C [1] was 114 % of control.
For Nc1nc(Cl)cc(=O)[nH]1, the T/C [12] was 94 % of control, the T/C [13] was 102 % of control and the T/C (dose: 200.0 mg/kg/injection, schedule: Q04DX003 (ip), vehicle: Klucel (hydroxypropylcellulose) (HPC)) was 94 % of control. The T/C (dose: 400.0 mg/kg/injection, schedule: Q04DX003 (ip), vehicle: Klucel (hydroxypropylcellulose) (HPC)) was 94 % of control.
Oc1c(Cl)cc(Cl)cc1C=Nc1ccc2c(ccc3c4ccccc4ccc23)c1 was tested, and the T/C (dose: 25.0 mg/kg/injection, schedule: Q04DX003 (ip), vehicle: Klucel (hydroxypropylcellulose) (HPC)) was 105 % of control, the T/C [12] was 105 % of control and the T/C [13] was 109 % of control and 86 % of control.
Br[CH](Br)[Hg][c]1ccccc1 was tested, and the T/C (dose: 100.0 mg/kg/injection, schedule: Q01DX001 (ip), vehicle: Klucel (hydroxypropylcellulose) (HPC)) was 93 % of control and the T/C (dose: 200.0 mg/kg/injection, schedule: Q01DX001 (ip), vehicle: Klucel (hydroxypropylcellulose) (HPC)) was 96 % of control.
With CN(C)/C=C/C(=O)c1ccccc1 the T/C (dose: 60.0 mg/kg/injection, schedule: Q01DX005 (ip), vehicle: saline with Tween-80) was 107 % of control, the T/C (dose: 120.0 mg/kg/injection, schedule: Q01DX005 (ip), vehicle: saline with Tween-80) was 101 % of control and the T/C (dose: 240.0 mg/kg/injection, schedule: Q01DX005 (ip), vehicle: saline with Tween-80) was 102 % of control.
For Cc1ccc(S(=O)(=O)C(CC(=O)CCN2CCCCC2)c2ccccc2)cc1 (stereo not given), the T/C [10] was 102 % of control and the T/C [11] was 96 % of control.
With Nc1c2c(=O)[nH]c(O)cc2nn1-c1ccccc1 the T/C (dose: 12.5 mg/kg/injection, schedule: Q01DX005 (ip), vehicle: saline with Tween-80) was 100 % of control, the T/C (dose: 25.0 mg/kg/injection, schedule: Q01DX005 (ip), vehicle: saline with Tween-80) was 96 % of control and the T/C (dose: 50.0 mg/kg/injection, schedule: Q01DX005 (ip), vehicle: saline with Tween-80) was 100 % of control and 97 % of control.
For CC(CC(=O)c1ccccc1)=NCC(O)CN=C(C)CC(=O)c1ccccc1.[Cu] (stereo not given), the T/C (dose: 12.5 mg/kg/injection, schedule: Q04DX003 (ip), vehicle: saline with Tween-80) was 96 % of control, the T/C (dose: 25.0 mg/kg/injection, schedule: Q04DX003 (ip), vehicle: saline with Tween-80) was 93 % of control and the T/C [14] was 96 % of control. The T/C [15] was 94 % of control and 98 % of control, the T/C [16] was 101 % of control and 92 % of control and the T/C (dose: 400.0 mg/kg/injection, schedule: Q04DX003 (ip), vehicle: saline with Tween-80) was 96 % of control.
With CC1CC(C#N)=C(NC#N)NC1=O (stereo not given) the T/C (dose: 7.5 mg/kg/injection, schedule: Q01DX005 (ip), vehicle: saline with Tween-80) was 108 % of control, the T/C (dose: 7.5 mg/kg/injection, schedule: Q01DX005 (ip), vehicle: saline) was 101 % of control and the T/C (dose: 15.0 mg/kg/injection, schedule: Q01DX005 (ip), vehicle: saline with Tween-80) was 111 % of control. For the same compound, the T/C [2] was 106 % of control.
With Cc1nc2cc3c(=O)n(C)cnc3cc2n1Cc1ccccc1 the T/C (dose: 12.5 mg/kg/injection, schedule: Q04DX002 (ip), vehicle: Klucel (hydroxypropylcellulose) (HPC)) was 104 % of control, the T/C (dose: 25.0 mg/kg/injection, schedule: Q04DX002 (ip), vehicle: Klucel (hydroxypropylcellulose) (HPC)) was 104 % of control and the T/C (dose: 50.0 mg/kg/injection, schedule: Q04DX002 (ip), vehicle: Klucel (hydroxypropylcellulose) (HPC)) was 107 % of control.
Cc1c(C(N)=O)no[n+]1[O-] was tested, and the T/C [3] was 100 % of control, the T/C [4] was 99 % of control and 100 % of control and the T/C (dose: 120.0 mg/kg/injection, schedule: Q01DX005 (ip), vehicle: saline) was 99 % of control and 100 % of control.
In the case of COc1ccc(N=Cc2ccccc2P(c2ccccc2)c2ccccc2)cc1, the T/C [7] was 101 % of control, the T/C [8] was 100 % of control and the T/C [9] was 100 % of control.
Cc1ccc(S(=O)(=O)NCCN(C)C)cc1 was tested, and the T/C [7] was 99 % of control, the T/C [8] was 99 % of control and the T/C [9] was 102 % of control. For the same compound, the T/C (dose: 400.0 mg/kg/injection, schedule: Q01DX009 (ip), vehicle: Klucel (hydroxypropylcellulose) (HPC)) was 101 % of control.
With CCCCCCCCCCCC[N+](C)(CCS(=O)(=O)[O-])Cc1ccccc1 (stereo not given) the T/C (dose: 100.0 mg/kg/injection, schedule: Q01DX005 (ip), vehicle: saline with Tween-80) was 108 % of control.
In the case of CC(=O)OC1OC(CF)C(OC(C)=O)C1OC(C)=O (stereo not given), the T/C [14] was 112 % of control, the T/C [15] was 100 % of control and the T/C [16] was 93 % of control.
With c1ccc2c(NCCCCCCCNc3c4ccccc4nc4ccccc34)c3ccccc3nc2c1 the T/C (dose: 2.5 mg/kg/injection, schedule: Q01DX009 (ip), vehicle: other) was 157 % of control, the T/C [5] was 155 % of control and 163 % of control and 175 % of control and the T/C [6] was 112 % of control.

Reference: PubChem BioAssay AID330 (DTP/NCI, 2004)
